Source: patent publication US7994402B2, “Method of increasing plant organ and seed size in a plant” (Monsanto Technology LLC, priority 2002, dated 2011)

Biological target: T1, A. thaliana protein molecule SEQ ID NO: 4 (His-tagged, from pMON63134) (Arabidopsis thaliana, UniProt Q9ZW18)
T1 construct: His-tag (N); made in house; host or cells: E. coli (pET-28b vector, plasmid pMON63134)
Test: Spectrophotometric reductase assay, consumption or production of NADPH at 340 nm
Format: biochemical
Source text: Appropriate clones (as shown in FIGS. 4-7) expressing all four versions of above-mentioned proteins in E. coli were identified by appropriate antibiotic selection as described by the manufacturer (Novagen 441 Charmany Drive Madison, Wis., 53719, USA). Expressed protein bands of the predicted sizes were identified by analytical SDS poly acrylamide gel electrophoresis (Laemmli, U.K., Nature, 227, 680, 1970) to confirm the expression of desired protein. […] Protein obtained from the plasmid pMON63134 (FIG. 6) was chosen for assay work described below. Protein extracts were prepared by freeze thawing and sonication as described Cull and McHenry (Cull M and McHenry C. S. Methods in Enzymology 182, 147-153, 1990). Pellets were resuspended in an appropriate volume of either 50 mM Tris-HCl pH 7.4 250 mM NaCl and 500 μM EDTA with 0.05% CHAPS and 1 mM ABESF or 50 mM KH2PO4 pH-7.2 250 mM NaCl and 250 μM EDTA with 0.05% CHAPS and 1 mM ABESF, buffer. Crude extracts containing His-tagged protein were applied to equilibrated His-Trap (Pharmacia Piscataway, N.J.) columns and purified by standard procedures as described by the manufacturer of the columns. Steps included a 10 mM imidazole elution/wash and elution in 250 mM imidazole. As a result the Arabidopsis tagged protein was partially purified (approximately 85-90% by SDS-PAGE stained with Coomasie Blue). Purified samples were gel filtered into 50 mM KH2PO4 pH-7.2 250 mM NaCl and 250 μM EDTA, 10% glycerol and stored at −80° C. until use. Protein concentrations were 1.5 to 1.7 mg/mL, based on the method of Bradford (Bradford M, Anal Biochem, 72, 248, 1976 and Bio-Rad Laboratories Procedure bulletin 1123) with BSA standard (Bradford reagent and BSA was from Bio-Rad Laboratories Headquarters 1000 Alfred Nobel Drive Hercules, Calif. 94547). The assays described below used 10 or 15 uL of this solution (15 to 22 μg per reaction).
Spectrophotometric assays were used for determination of enzyme activities of purified proteins. Assays were based on earlier described methods (Portsteffen et al. Phyochemistry, 37, 391, 1994). […] Assays were performed in a Varian Cary 50 Bio spectrophotometer (Varian Instruments Inc. AA, ICP, UV, to Fluorescence Products 679 Springvale RoadMulgrave, Victoria 3170 Australia). All assays were run at 30° C. for 10 to 30 minutes in 1 mL volumes using 100 mM KH2PO4 pH 6.5, 250 μM EDTA or 50 mM KH2PO4 pH-7.2, 250 mM NaCl, and 250 μM EDTA as reaction buffer. If metals were added they were supplemented to reactions in cuvettes from 100 mM stocks of either ZnCl2 and or MgCl2. Substrates included those found in table 8. […] Controls contained no substrate to determine the background rate of consumption and degradation of NADPH. NADPH solutions were freshly made and checked by UV-vis for degradation. Enzyme solutions were supplemented with 1 mM MgCl2 and 1 mM Zn Cl2 which were at 1.5 to 1.7 mg/mL concentrations. The assays used 10 or 15 μl of this solution (ca. 15 to 22 μg per reaction). Stock solutions of the substrates (20 to 500 mM) were made up in a reaction buffer or as noted. Steroids solutions were made in 100% EtOH. From these stock solutions additions to the assays were made directly. Precipitation of steroids was observed. Thus, the soluble concentration of steroids in reaction mixture is not accurately known in each case. However, good estimate of substrate (sterol) concentration would be 100 to 200 μM for a saturated solution under these conditions. […] In addition to cell extract control, a substrate control was also employed because solutions of some substrates tested can have a lower pH at described assay conditions which may affect rates of NADPH degradation and enzyme activity under assay conditions.

T1 sequence (Q9ZW18 1-268): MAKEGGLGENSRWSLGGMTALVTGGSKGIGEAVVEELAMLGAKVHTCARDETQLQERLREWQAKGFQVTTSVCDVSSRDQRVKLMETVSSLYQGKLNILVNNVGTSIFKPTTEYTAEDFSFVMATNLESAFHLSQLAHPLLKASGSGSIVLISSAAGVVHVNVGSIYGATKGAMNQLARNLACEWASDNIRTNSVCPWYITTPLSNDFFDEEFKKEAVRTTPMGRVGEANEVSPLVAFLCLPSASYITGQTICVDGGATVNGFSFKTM

## OCC1O[C@H](O)C(O)[C@@H](O)[C@@H]1O (stereo partly drawn) [D-Glucose]
25 mM
  Activity (substrate): No 25 mM

## CN1C2CCC1CC(O)C2 (stereo not drawn) [Tropine]
1 and 10 mM
  Activity (substrate): No retested with new enzyme 1 and 10 mM

## isopropanol
68 mM, substrate for the reverse reaction
  Activity (substrate): Yes 68 mM
At same concentrations, reverse reaction
  substrate quality compared with acetone: At high concentrations it is a substrate for the reverse reaction but at same concentrations is a poorer substrate than acetone indicating potential preference for the reductase activity under these conditions.

## C[C@]12CCC(=O)C=C1CCC1C2CC[C@]2(C)C(=O)CCC12 (stereo partly drawn) [4-androstene-3,17-dione]
100 μM
  Activity (substrate): YES 100 μM

## O=C1OC(CO)[C@@H](O)[C@H](O)C1O (stereo partly drawn) [Glucono 1,5 lactone]
25 mM
  Activity (substrate): No 25 mM

## O=C1OC(CO)[C@H](O)C(O)C1O (stereo partly drawn) [δ-gluconolactone]
25 mM
  Activity (substrate): No 25 mM

## C[C@]12CCC(=O)CC1CCC1C2CC[C@]2(C)C(=O)CCC12 (stereo in doubt) [5α-androstane-3,17-dione]
100 μM
  Activity (substrate): YES 100 μM

## C=C1C[C@]23C[C@@]1(O)CC[C@H]2[C@@]12C=C[C@H](O)[C@@](C)(C(=O)O1)[C@H]2[C@@H]3C(=O)O [Gibberellic Acid (GA3)]
1 and 10 mM
  Activity (substrate): No 1 and 10 mM

## O=C(O)C(O)C(O)C(O)C(O)CO (stereo not drawn) [Potassium d-gluconate]
25 mM
  Activity (substrate): No 25 mM

## acetone
65 mM
  Activity (substrate): Yes
At lower concentrations than 65 mM
  Activity (substrate): Much lower

## OC[C@H]1O[C@@](CO)(O[C@H]2O[C@H](CO)[C@@H](O)[C@H](O)[C@H]2O)[C@@H](O)[C@@H]1O [Sucrose]
25 mM
  Activity (substrate): No 25 mM

## OCC(O)C(O)C(O)CO (stereo not drawn) [Arabinitol]
25 mM
  Activity (substrate): No 25 mM

## CN1C2CCC1CC(=O)C2 [Tropinone]
1 and 10 mM
  Activity (substrate): No retested with new enzyme 1 and 10 mM
